{
  "source": "patent US11582989B2",
  "about": "“Stress management in livestock” (Charles Sturt University, priority 2013, dated 2023)",
  "key": {"[1]": {"settings": "Podell and Fenner, 1993; cited from earlier work"}, "C57B16/Ola male mice [2]": {"tested_on": "C57B16/Ola male mice", "experiment": "Novel arena test, freezing response episodes (AnyMaze)", "type": "in vivo", "settings": "potassium bromide 250 mg/L in drinking water for 7 days, vs normal drinking water", "experimental": "Animals were placed in the centre of an open arena which was unfamiliar to them and their rate and range of movement tracked by digital recognition software. Distance, speed and time spent immobile were analysed using the AnyMaze™ software. Results were compared statistically using SPSS™."}, "[3]": {"settings": "cited from earlier work"}, "C57B16/Ola male mice [4]": {"tested_on": "C57B16/Ola male mice", "settings": "potassium bromide 250 mg/L in drinking water for 7 days", "experimental": "(§1) A model system was established to induce stress in rodents by repeated behavioural testing using the AnyMaze™ rodent behavioural monitoring system. […] At the end of 7 days animals were subjected to a number of behavioural tests to assess level of stress. Weight gain was also analysed in the treatment group by recording body weight over the initial 7 day period.\n(§2) C57B16/Ola male mice at 5 weeks of age were purchased from MAS Client Services, Monash University, Melbourne, Australia. Animals were weighed at the start of the test period and daily for the duration of testing.\n(§3) Animals were weighed 3 times during the experiment (7 days). To initiate a mildly stressful situation, animals were exposed to novel arena, parallel rod and tremor tests using the mouse AnyMaze™ system (AnyMaze™, Stoelting, U.S.A.)."}, "[5]": {"settings": "horse (Raidal and Edwards, 2008); cited from earlier work"}, "[6]": {"settings": "sheep", "experimental": "(§4) NaBr solution was administered through the cephalic vein using a 21 gauge needle over a period of 1 minute. Sheep were restrained in a seated position. Blood samples were collected at 0, 1, 5, 10, 15, 20 and 30 min and then at 1, 2, 3, 4, 6, 8, 10, 12, 24 h. Samples thereafter were collected at 12 h intervals to 240 h then at 24 h intervals to 336 h. A final sample was taken at 528 h. For each sample, the initial 2 mL of blood collected was discarded and a sterile syringe used to withdraw 5 mL of blood which was then placed into a plain separator blood tube (Vacuette: Greiner Bio-one). The cannulas were flushed with 3 mL of 5% heparinised saline after each collection. Each blood sample was left to stand for 30 min before centrifugation at 2000 g for 5 min. Serum was harvested and stored at −20° C. until analysis.\n(§5) KBr solution was administered via an orogastric tube, then flushed with 500 mL water. Blood samples were collected at 0, 1, 2, 3, 4, 6, 8, 10, 12, 24 h, then at 12 h intervals to 240 h, then at 24 h intervals to 336 h. A final sample was taken at 504 h. When collecting blood samples at 1 h through to 10 h the rumen was auscultated, over the caudo-dorsal blind sack, to determine if the high salt load affected rumen motility.\nAbsorbance was measured with a spectrophotometer at 440 nm."}, "[7]": {"experiment": "Weight gain of Merino ewe lambs after mulesing and tail docking", "type": "in vivo"}, "[8]": {"settings": "sheep, 120 mg/kg", "experimental": "as §4, §5"}, "[9]": {"experiment": "Weight gain under mildly stressful management conditions", "type": "in vivo, mice", "settings": "potassium bromide 250 mg/L in drinking water, 7 days, mild stress, vs control", "experimental": "as §1, §2, §3"}, "[10]": {"settings": "300 mg/kg LW oral bromide immediately prior to procedure, n=20"}},
  "note": "Like-named read-outs stand apart in the source and are kept apart here.",
  "data": [
    {"smiles": "Br", "note": "[bromide]", "values": [
      {"measurement": "anticonvulsant range (Br concentration)", "setting": "[1]", "result": "1.0 to 2.0", "unit": "mg/mL"},
      {"measurement": "freezing response episodes in novel arena test", "setting": "C57B16/Ola male mice [2]", "result": "trend towards decreased freezing response episodes"},
      {"measurement": "t½", "setting": "[3]; dog (Trepanier and Babish, 1995)", "result": "12 to 24", "unit": "days"},
      {"measurement": "bioavailability", "setting": "[3]; dog (Trepanier and Babish, 1995b)", "result": 40, "unit": "%"},
      {"measurement": "signs of ataxia", "setting": "C57B16/Ola male mice [4]", "result": "no signs of ataxia"},
      {"measurement": "parallel rod touches", "setting": "C57B16/Ola male mice [4]; vs normal drinking water", "result": "significantly more touches"},
      {"measurement": "estimated bioavailability", "setting": "[5]", "result": "32-38%"},
      {"measurement": "t½", "setting": "[5]", "result": "approximately 3 d"},
      {"measurement": "t½", "setting": "[6]; IV", "result": 16.2, "unit": "days"},
      {"measurement": "absorption following PO administration", "setting": "[6]; PO", "result": "absorbed rapidly"},
      {"measurement": "half-life (t½)", "setting": "[6]; PO", "result": "approximately 14 days"},
      {"measurement": "serum Br concentration range", "setting": "[6]; PO 120 mg/kg, for 14 d", "result": "200 to 400", "unit": "mg/L"},
      {"measurement": "mean weight gain between day 7 and 14", "setting": "[7]; 300 mg/kg LW oral bromide", "result": "1.80 ± 0.30", "unit": "kg"},
      {"measurement": "mean live weight on day 51", "setting": "[7]; [10]", "result": "22.17 ± 0.86", "unit": "kg"},
      {"measurement": "mean weight gain after 51 days", "setting": "[7]; [10]", "result": "8.52 ± 0.57", "unit": "kg"},
      {"measurement": "Day 1-7 mean weight change", "setting": "[7]; 300 mg/kg LW oral bromide, first seven days", "result": "-0.564 ± 1.29", "unit": "kg"},
      {"measurement": "weight gain compared to untreated counterparts", "setting": "[7]; 300 mg/kg LW oral, after 14 days", "result": "enhanced weight gain"},
      {"measurement": "live weight gain", "setting": "[7]; over 51 days", "result": 0.16, "unit": "kg per head per day"},
      {"measurement": "weight gain per head per day", "setting": "[7]; over the 51 days of the trial", "result": 0.57},
      {"measurement": "increase in production gain", "setting": "[7]; vs control, over 51 days", "result": 11, "unit": "%"},
      {"measurement": "adverse reactions", "setting": "[8]; IV and PO groups", "result": "No adverse reactions were noted"},
      {"measurement": "duration of tranquilising effect post-injection", "setting": "[8]; IV", "result": "1 to 2", "unit": "h"},
      {"measurement": "tranquilising effect (subjective observation)", "setting": "[8]; IV", "result": "mild tranquilising effect"},
      {"measurement": "neurological effects", "setting": "[8]; PO group", "result": "no discernable neurological effects"},
      {"measurement": "rumen motility", "setting": "[8]; PO group, auscultated 1 h to 10 h", "result": "no observed alteration in rumen motility"},
      {"measurement": "weight gain", "setting": "[9]", "result": "increased weight gain"}
    ]},
    {"smiles": "[Br-].[K+]", "note": "[potassium bromide]", "values": [
      {"measurement": "freezing response episodes in novel arena test", "setting": "C57B16/Ola male mice [2]", "result": "trend was towards decreased freezing episodes"},
      {"measurement": "weight gain compared to untreated counterparts", "setting": "[7]; 300 mg/kg LW oral at time of mulesing and tail docking, over 51 days", "result": "trend towards increased weight gain"},
      {"measurement": "weight gain", "setting": "[9]", "result": "significant weight gain"}
    ]}
  ]
}
